# Literature values, collected in patent US20080081067A1, “SUSTAINED RELEASE PHARMACEUTICAL COMPOSITIONS OF VENLAFAXINE AND PROCESS FOR PREPARATION THEREOF” (priority 2006, published 2008).
# System: monoamine oxidase
# Settings: background statement
compound,measurement,value
COc1ccc(C(CN(C)C)C2(O)CCCCC2)cc1 (stereo not shown) [Venlafaxine],inhibitory activity on monoamine oxidase,no inhibitory activity
